Test results published in ChEMBL document CHEMBL1201862, “PubChem BioAssay data set” (2004).
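Compound exposure: 48 hours, 5 concentrations, 96-well plates. At the GI50, growth is halved.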 Activity calls are given as the source filed them. Rule as the data show it: active = GI50 up to about 1.1 µM and inactive = higher.

Key:
Assay in all cases: growth of human tumour cells (NCI), 48 h
A549 = test system: A549
BT-549 = test system: BT-549
CAKI-1 = test system: CAKI-1
CCRF-CEM = test system: CCRF-CEM
COLO 205 = test system: COLO 205
IGROV-1 = test system: IGROV-1
K562 = test system: K562
KM12 = test system: KM12
M14 = test system: M14
NCI-H226 = test system: NCI-H226
NCI-H460 = test system: NCI-H460
OVCAR-3 = test system: OVCAR-3
RXF 393 = test system: RXF 393
SK-MEL-2 = test system: SK-MEL-2
SK-MEL-5 = test system: SK-MEL-5
SK-OV-3 = test system: SK-OV-3
SNB-75 = test system: SNB-75
TK-10 = test system: TK-10
UACC-257 = test system: UACC-257
MDA-N = test system: MDA-N

Structure (SMILES)	GI50 (A549)	GI50 (BT-549)	GI50 (CAKI-1)	GI50 (CCRF-CEM)	GI50 (COLO 205)	GI50 (IGROV-1)	GI50 (K562)	GI50 (KM12)	GI50 (M14)	GI50 (NCI-H226)	GI50 (NCI-H460)	GI50 (OVCAR-3)	GI50 (RXF 393)	GI50 (SK-MEL-2)	GI50 (SK-MEL-5)	GI50 (SK-OV-3)	GI50 (SNB-75)	GI50 (TK-10)	GI50 (UACC-257)	GI50 (MDA-N)
CCOC(=O)c1c2c(n(Cc3ccccc3)c1C)C(=O)C(=O)c1ccccc1-2	0.431 µM (active)	0.337 µM (active)	0.5 µM (active)	0.134 µM (active)	0.705 µM (active)	1.15 µM (inactive)	0.122 µM (active)	0.574 µM (active)	0.452 µM (active)	0.55 µM (active)	0.418 µM (active)	0.0615 µM (active)	0.703 µM (active)	1.26 µM (inactive)	0.295 µM (active)	0.61 µM (active)	0.309 µM (active)	0.64 µM (active)	0.0989 µM (active)	
Cc1cccc2c1C(=O)C1(Cc3ccccc3C1=O)C2 (centres undefined)	> 100 µM (inactive)			> 100 µM (inactive)	> 100 µM (inactive)	> 100 µM (inactive)	> 100 µM (inactive)		> 100 µM (inactive)	> 100 µM (inactive)	70.3 µM (inactive)	> 100 µM (inactive)	> 100 µM (inactive)		> 100 µM (inactive)	> 100 µM (inactive)	46.5 µM (inactive)	> 100 µM (inactive)	> 100 µM (inactive)	> 100 µM (inactive)
COc1ccc(C(=O)N2CCN(c3ccc4c(c3)OCC(=O)N4)CC2)cc1	> 100 µM (inactive)	> 100 µM (inactive)	> 100 µM (inactive)	> 100 µM (inactive)	> 100 µM (inactive)	> 100 µM (inactive)		> 100 µM (inactive)	> 100 µM (inactive)	> 100 µM (inactive)	> 100 µM (inactive)	> 100 µM (inactive)		> 100 µM (inactive)	> 100 µM (inactive)	> 100 µM (inactive)	> 100 µM (inactive)	> 100 µM (inactive)	> 100 µM (inactive)	> 100 µM (inactive)
O=P(O)(O)C=C=C1CCCCC1	> 100 µM (inactive)		> 100 µM (inactive)		> 100 µM (inactive)	> 100 µM (inactive)	> 100 µM (inactive)	> 100 µM (inactive)	> 100 µM (inactive)	> 100 µM (inactive)	> 100 µM (inactive)	> 100 µM (inactive)	> 100 µM (inactive)	> 100 µM (inactive)	> 100 µM (inactive)	> 100 µM (inactive)	> 100 µM (inactive)	> 100 µM (inactive)	> 100 µM (inactive)	> 100 µM (inactive)
Oc1ccc(Cl)cc1-c1cc(-c2ccccc2)nc(S)n1	> 100 µM (inactive)		> 100 µM (inactive)	> 100 µM (inactive)	> 100 µM (inactive)	> 100 µM (inactive)	> 100 µM (inactive)	92.5 µM (inactive)	> 100 µM (inactive)	> 100 µM (inactive)	> 100 µM (inactive)	> 100 µM (inactive)	71.3 µM (inactive)	27.2 µM (inactive)	> 100 µM (inactive)	29.5 µM (inactive)	21.5 µM (inactive)	30.5 µM (inactive)	> 100 µM (inactive)	> 100 µM (inactive)
CCCc1nc(NC#N)nc(C(=O)NC23CC4CC(CC(C4)C2)C3)c1C	> 100 µM (inactive)		> 100 µM (inactive)	> 100 µM (inactive)	> 100 µM (inactive)	> 100 µM (inactive)	> 100 µM (inactive)	> 100 µM (inactive)	> 100 µM (inactive)	> 100 µM (inactive)	> 100 µM (inactive)	> 100 µM (inactive)	> 100 µM (inactive)	> 100 µM (inactive)	> 100 µM (inactive)	> 100 µM (inactive)	> 100 µM (inactive)	> 100 µM (inactive)	> 100 µM (inactive)	
CC1=NC2=Nc3nc(C)cc[n+]3CN2C=C1	79.3 µM (inactive)	49.3 µM (inactive)	0.144 µM (active)		67.5 µM (inactive)	39.9 µM (inactive)			> 100 µM (inactive)	> 100 µM (inactive)	43.2 µM (inactive)	> 100 µM (inactive)	> 100 µM (inactive)	> 100 µM (inactive)	53.3 µM (inactive)	> 100 µM (inactive)	> 100 µM (inactive)	88.3 µM (inactive)	> 100 µM (inactive)	
O=C(NCCO)c1cc2c(cn1)[nH]c1ccccc12	> 100 µM (inactive)		> 100 µM (inactive)	> 100 µM (inactive)	> 100 µM (inactive)	> 100 µM (inactive)	> 100 µM (inactive)	> 100 µM (inactive)	> 100 µM (inactive)	> 100 µM (inactive)	> 100 µM (inactive)	> 100 µM (inactive)	> 100 µM (inactive)	16.8 µM (inactive)	> 100 µM (inactive)	> 100 µM (inactive)	69.5 µM (inactive)	> 100 µM (inactive)	> 100 µM (inactive)	
COc1cccc(C2c3cc4c(cc3OC(N3CCOCC3)C2C)OCO4)c1OC (centres undefined)	9.98 µM (inactive)		2.02 µM (inactive)	4.52 µM (inactive)	9.04 µM (inactive)	3.46 µM (inactive)	2.07 µM (inactive)	5.68 µM (inactive)	9.1 µM (inactive)		7.71 µM (inactive)	3.04 µM (inactive)		6.41 µM (inactive)	9.59 µM (inactive)		4.88 µM (inactive)	15.5 µM (inactive)	8.02 µM (inactive)	13.7 µM (inactive)
CCN(CC)c1ccc(/N=N\c2ccc(-c3nc4ccc[n+](C)c4s3)cc2)cc1	4.2 µM (inactive)		19.7 µM (inactive)	3.05 µM (inactive)	3.24 µM (inactive)	8.18 µM (inactive)	2.4 µM (inactive)	2.76 µM (inactive)	13.2 µM (inactive)	6.5 µM (inactive)	4.01 µM (inactive)	3.53 µM (inactive)	> 10 µM (inactive)	7.83 µM (inactive)	5.48 µM (inactive)	16.1 µM (inactive)	9.4 µM (inactive)	20 µM (inactive)	5.01 µM (inactive)	
CC#N.O[C@@H]1CCCC[C@H]1O.O[C@@H]1CCCC[C@H]1O.[TeH2]	41.5 µM (inactive)		> 100 µM (inactive)	20.2 µM (inactive)	> 100 µM (inactive)	41.6 µM (inactive)	25.8 µM (inactive)	42.7 µM (inactive)	> 100 µM (inactive)	46.1 µM (inactive)	2.99 µM (inactive)	19.1 µM (inactive)	> 100 µM (inactive)	> 100 µM (inactive)	33.3 µM (inactive)	> 100 µM (inactive)	> 100 µM (inactive)	> 100 µM (inactive)	> 100 µM (inactive)	
